Measured values published in ChEMBL document CHEMBL3352247, “Synthesis and antimycobacterial evaluation of 5-alkylamino-N-phenylpyrazine-2-carboxamides” (Bioorg Med Chem, 2015).
In brackets after ≈: the same amount, converted by molar mass. Activity calls are given as the source filed them. The calls are words filed in the database; no cut-off is given here.

Tests used:
[1] = system: Mycobacterium tuberculosis; test: Antimycobacterial activity against Mycobacterium tuberculosis H37Rv CNCTC My 331/88 after 10 to 14 days by AlamarBlue assay; assay type: functional
[2] = Antimycobacterial activity against Mycobacterium avium subsp. avium Chester CNCTC My 80/72 after 5 days by AlamarBlue assay; assay type: functional; details: Chester CNCTC My 80/72, 120 h
Klebsiella pneumoniae [3] = test: Antibacterial activity against ESBL-positive Klebsiella pneumoniae J 14368/08 clinical isolate after 24 to 48 hrs by broth microdilution method; assay type: functional, organism-based
Trichosporon asahii = test: Antifungal activity against Trichosporon asahii 1188 after 24 to 48 hrs by two-fold dilution method; assay type: functional, organism-based
[4] = system: Staphylococcus epidermidis; test: Antibacterial activity against Staphylococcus epidermidis H 6966/08 clinical isolate after 24 to 48 hrs by broth microdilution method; assay type: functional, organism-based
Mycobacterium kansasii [5] = test: Antimycobacterial activity against Mycobacterium kansasii CNCTC My 235/80 after 5 to 7 days by AlamarBlue assay; assay type: functional
Pseudomonas aeruginosa = test: Antibacterial activity against Pseudomonas aeruginosa CCM 1961 after 24 to 48 hrs by broth microdilution method; assay type: functional, organism-based
Staphylococcus aureus [6] = test: Antibacterial activity against Staphylococcus aureus CCM 4516/08 after 24 to 48 hrs by broth microdilution method; assay type: functional, organism-based
Lichtheimia corymbifera = test: Antifungal activity against Absidia corymbifera 272 after 24 to 48 hrs by two-fold dilution method; assay type: functional, organism-based
Enterococcus sp. [7] = test: Antibacterial activity against Enterococcus sp. J 14365/08 clinical isolate after 24 to 48 hrs by broth microdilution method; assay type: functional, organism-based
Aspergillus fumigatus = test: Antifungal activity against Aspergillus fumigatus 231 after 24 to 48 hrs by two-fold dilution method; assay type: functional, organism-based
[8] = system: Trichophyton mentagrophytes; test: Antifungal activity against Trichophyton mentagrophytes 445 after 72 to 120 hrs by two-fold dilution method; assay type: functional, organism-based
Pichia kudriavzevii = test: Antifungal activity against Candida krusei E28 after 24 to 48 hrs by two-fold dilution method; assay type: functional, organism-based
Candida albicans = test: Antifungal activity against Candida albicans ATCC 44859 after 24 to 48 hrs by two-fold dilution method; assay type: functional, organism-based
Escherichia coli = test: Antibacterial activity against Escherichia coli CCM 4517 after 24 to 48 hrs by broth microdilution method; assay type: functional, organism-based
Enterococcus sp. [9] = test: Antibacterial activity against Enterococcus sp. after 24 to 48 hrs by broth microdilution method; assay type: functional
Klebsiella pneumoniae [10] = test: Antibacterial activity against Klebsiella pneumoniae D 11750/08 clinical isolate after 24 to 48 hrs by broth microdilution method; assay type: functional, organism-based
Candida tropicalis = test: Antifungal activity against Candida tropicalis 156 after 24 to 48 hrs by two-fold dilution method; assay type: functional, organism-based
Staphylococcus aureus [11] = test: Antibacterial activity against methicillin-resistant Staphylococcus aureus H 5996/08 clinical isolate after 24 to 48 hrs by broth microdilution method; assay type: functional, organism-based
Nakaseomyces glabratus = test: Antifungal activity against Candida glabrata 20/I after 24 to 48 hrs by two-fold dilution method; assay type: functional, organism-based
[12] = Antimycobacterial activity against Mycobacterium avium subsp. avium Chester CNCTC My 80/72 in Middlebrook 7H9 broth after 5 days by AlamarBlue assay; assay type: functional; details: Chester CNCTC My 80/72, 120 h
Mycobacterium kansasii [13] = test: Antimycobacterial activity against Mycobacterium kansasii CNCTC My 235/80 in Middlebrook 7H9 broth after 5 days by AlamarBlue assay; assay type: functional; details: CNCTC My 235/80, 120 h
[14] = system: Mycobacterium tuberculosis; test: Antimycobacterial activity against Mycobacterium tuberculosis H37Rv CNCTC My 331/88 in Middlebrook 7H9 broth after 5 days by AlamarBlue assay; assay type: functional; details: H37Rv CNCTC My 331/88, 120 h

CCCCCCCCNc1cnc(C(=O)Nc2ccccc2Cl)cn1
MIC [1]: > 25 µg/mL | MIC [2]: > 25 µg/mL | Activity (Klebsiella pneumoniae [3]): inactive | Activity (Trichosporon asahii): inactive | Activity [4]: inactive | MIC (Mycobacterium kansasii [5]): > 25 µg/mL | Activity (Pseudomonas aeruginosa): inactive | Activity (Staphylococcus aureus [6]): inactive | Activity (Lichtheimia corymbifera): inactive | Activity (Enterococcus sp. [7]): inactive | Activity (Aspergillus fumigatus): inactive | Activity [8]: inactive | Activity (Pichia kudriavzevii): inactive | Activity (Candida albicans): inactive | Activity (Escherichia coli): inactive | Activity (Enterococcus sp. [9]): Active | Activity (Klebsiella pneumoniae [10]): inactive | Activity (Candida tropicalis): inactive | Activity (Staphylococcus aureus [11]): inactive | Activity (Nakaseomyces glabratus): inactive

CCCCCNc1cnc(C(=O)Nc2ccccc2)cn1
MIC [1]: 11 µM | MIC [2]: > 100 µg/mL | Activity (Klebsiella pneumoniae [3]): inactive | Activity (Trichosporon asahii): inactive | Activity [4]: inactive | MIC (Mycobacterium kansasii [5]): 11 µM | Activity (Pseudomonas aeruginosa): inactive | Activity (Staphylococcus aureus [6]): inactive | Activity (Lichtheimia corymbifera): inactive | Activity (Enterococcus sp. [7]): inactive | Activity (Aspergillus fumigatus): inactive | Activity [8]: inactive | Activity (Pichia kudriavzevii): inactive | Activity (Candida albicans): inactive | Activity (Escherichia coli): inactive | Activity (Enterococcus sp. [9]): Active | Activity (Klebsiella pneumoniae [10]): inactive | Activity (Candida tropicalis): inactive | Activity (Staphylococcus aureus [11]): inactive | Activity (Nakaseomyces glabratus): inactive

CCCCCNc1cnc(C(=O)Nc2ccccc2Cl)cn1
MIC [1]: > 100 µg/mL | MIC [2]: > 100 µg/mL | Activity (Klebsiella pneumoniae [3]): inactive | Activity (Trichosporon asahii): inactive | Activity [4]: inactive | MIC (Mycobacterium kansasii [5]): > 100 µg/mL | Activity (Pseudomonas aeruginosa): inactive | Activity (Staphylococcus aureus [6]): inactive | Activity (Lichtheimia corymbifera): inactive | Activity (Enterococcus sp. [7]): inactive | Activity (Aspergillus fumigatus): inactive | Activity [8]: inactive | Activity (Pichia kudriavzevii): inactive | Activity (Candida albicans): inactive | Activity (Escherichia coli): inactive | Activity (Enterococcus sp. [9]): Active | Activity (Klebsiella pneumoniae [10]): inactive | Activity (Candida tropicalis): inactive | Activity (Staphylococcus aureus [11]): inactive | Activity (Nakaseomyces glabratus): inactive

CCCCCCNc1cnc(C(=O)Nc2ccccc2)cn1
MIC [1]: 2.6 µM | MIC [2]: > 100 µg/mL | Activity (Klebsiella pneumoniae [3]): inactive | Activity (Trichosporon asahii): inactive | Activity [4]: inactive | MIC (Mycobacterium kansasii [5]): 2.6 µM | Activity (Pseudomonas aeruginosa): inactive | Activity (Staphylococcus aureus [6]): inactive | Activity (Lichtheimia corymbifera): inactive | Activity (Enterococcus sp. [7]): inactive | Activity (Aspergillus fumigatus): inactive | Activity [8]: inactive | Activity (Pichia kudriavzevii): inactive | Activity (Candida albicans): inactive | Activity (Escherichia coli): inactive | Activity (Enterococcus sp. [9]): Active | Activity (Klebsiella pneumoniae [10]): inactive | Activity (Candida tropicalis): inactive | Activity (Staphylococcus aureus [11]): inactive | Activity (Nakaseomyces glabratus): inactive

CCCCNc1cnc(C(=O)Nc2ccccc2Cl)cn1
MIC [1]: > 100 µg/mL | MIC [2]: > 100 µg/mL | Activity (Klebsiella pneumoniae [3]): inactive | Activity (Trichosporon asahii): inactive | Activity [4]: inactive | MIC (Mycobacterium kansasii [5]): > 100 µg/mL | Activity (Pseudomonas aeruginosa): inactive | Activity (Staphylococcus aureus [6]): inactive | Activity (Lichtheimia corymbifera): inactive | Activity (Enterococcus sp. [7]): inactive | Activity (Aspergillus fumigatus): inactive | Activity [8]: inactive | Activity (Pichia kudriavzevii): inactive | Activity (Candida albicans): inactive | Activity (Escherichia coli): inactive | MIC (Enterococcus sp. [9]): 62.5 µM (≈ 19 µg/mL) | Activity (Klebsiella pneumoniae [10]): inactive | Activity (Candida tropicalis): inactive | Activity (Staphylococcus aureus [11]): inactive | Activity (Nakaseomyces glabratus): inactive

NC(=O)c1cnccn1 [PYRAZINAMIDE]
MIC [1]: 50.8 µM | MIC [2]: > 100 µg/mL | MIC (Mycobacterium kansasii [5]): > 100 µg/mL

O=C(Nc1ccccc1Cl)c1cnc(Cl)cn1
MIC [1]: 2 µM | MIC [2]: > 100 µg/mL

O=C(Nc1ccccc1)c1cnc(NCCCCCO)cn1
Activity (Klebsiella pneumoniae [3]): inactive | MIC [12]: > 100 µg/mL | MIC (Mycobacterium kansasii [13]): > 100 µg/mL | Activity (Trichosporon asahii): inactive | Activity [4]: inactive | Activity (Pseudomonas aeruginosa): inactive | Activity (Staphylococcus aureus [6]): inactive | Activity (Lichtheimia corymbifera): inactive | Activity (Enterococcus sp. [7]): inactive | Activity (Aspergillus fumigatus): inactive | Activity [8]: inactive | MIC [14]: 41.6 µM | Activity (Pichia kudriavzevii): inactive | Activity (Candida albicans): inactive | Activity (Escherichia coli): inactive | Activity (Klebsiella pneumoniae [10]): inactive | Activity (Candida tropicalis): inactive | Activity (Staphylococcus aureus [11]): inactive | Activity (Nakaseomyces glabratus): inactive

O=C(Nc1ccccc1)c1cnc(NCCCCO)cn1
Activity (Klebsiella pneumoniae [3]): inactive | MIC [12]: > 100 µg/mL | MIC (Mycobacterium kansasii [13]): > 100 µg/mL | Activity (Trichosporon asahii): inactive | Activity [4]: inactive | Activity (Pseudomonas aeruginosa): inactive | Activity (Staphylococcus aureus [6]): inactive | Activity (Lichtheimia corymbifera): inactive | Activity (Enterococcus sp. [7]): inactive | Activity (Aspergillus fumigatus): inactive | Activity [8]: inactive | MIC [14]: 87.3 µM | Activity (Pichia kudriavzevii): inactive | Activity (Candida albicans): inactive | Activity (Escherichia coli): inactive | Activity (Klebsiella pneumoniae [10]): inactive | Activity (Candida tropicalis): inactive | Activity (Staphylococcus aureus [11]): inactive | Activity (Nakaseomyces glabratus): inactive

O=C(Nc1ccccc1Cl)c1cnc(NCCCCCO)cn1
Activity (Klebsiella pneumoniae [3]): inactive | MIC [12]: > 100 µg/mL | MIC (Mycobacterium kansasii [13]): > 100 µg/mL | Activity (Trichosporon asahii): inactive | Activity [4]: inactive | Activity (Pseudomonas aeruginosa): inactive | Activity (Staphylococcus aureus [6]): inactive | Activity (Lichtheimia corymbifera): inactive | Activity (Enterococcus sp. [7]): inactive | Activity (Aspergillus fumigatus): inactive | Activity [8]: inactive | MIC [14]: > 100 µg/mL | Activity (Pichia kudriavzevii): inactive | Activity (Candida albicans): inactive | Activity (Escherichia coli): inactive | Activity (Klebsiella pneumoniae [10]): inactive | Activity (Candida tropicalis): inactive | Activity (Staphylococcus aureus [11]): inactive | Activity (Nakaseomyces glabratus): inactive

O=C(Nc1ccccc1Cl)c1cnc(NCCc2ccccc2)cn1
Activity (Klebsiella pneumoniae [3]): inactive | MIC [12]: > 100 µg/mL | MIC (Mycobacterium kansasii [13]): > 100 µg/mL | Activity (Trichosporon asahii): inactive | Activity [4]: inactive | Activity (Pseudomonas aeruginosa): inactive | Activity (Staphylococcus aureus [6]): inactive | Activity (Lichtheimia corymbifera): inactive | Activity (Enterococcus sp. [7]): inactive | Activity (Aspergillus fumigatus): inactive | Activity [8]: inactive | MIC [14]: > 100 µg/mL | Activity (Pichia kudriavzevii): inactive | Activity (Candida albicans): inactive | Activity (Escherichia coli): inactive | Activity (Klebsiella pneumoniae [10]): inactive | Activity (Candida tropicalis): inactive | Activity (Staphylococcus aureus [11]): inactive | Activity (Nakaseomyces glabratus): inactive

NNC(=O)c1ccncc1 [ISONIAZID]
MIC [1]: 1.5 µM | MIC [2]: 12.5 µg/mL (≈ 91.1 µM) | MIC (Mycobacterium kansasii [5]): 11.4 µM

O=C(Nc1ccccc1)c1cnc(NCCc2ccccc2)cn1
Activity (Klebsiella pneumoniae [3]): inactive | MIC [12]: > 100 µg/mL | MIC (Mycobacterium kansasii [13]): > 100 µg/mL | Activity (Trichosporon asahii): inactive | Activity [4]: inactive | Activity (Pseudomonas aeruginosa): inactive | Activity (Staphylococcus aureus [6]): inactive | Activity (Lichtheimia corymbifera): inactive | Activity (Enterococcus sp. [7]): inactive | Activity (Aspergillus fumigatus): inactive | Activity [8]: inactive | MIC [14]: 39.3 µM | Activity (Pichia kudriavzevii): inactive | Activity (Candida albicans): inactive | Activity (Escherichia coli): inactive | Activity (Klebsiella pneumoniae [10]): inactive | Activity (Candida tropicalis): inactive | Activity (Staphylococcus aureus [11]): inactive | Activity (Nakaseomyces glabratus): inactive
